We go through 35 compounds from patent publication US12162858B2, “Quinoline derivatives as inhibitors of AXL/MER RTK and CSF1R” (QURIENT CO., LTD., priority 2018, dated 2024).

Where two headings read alike, the source gives them in different places.

In the experiment the target is CSF1R (Homo sapiens, UniProt P07333). Kind of experiment: KINOMEscan competition binding assay for CSF1R. Also noted: DNA tag for qPCR (not a peptide); host or cells: E. coli/T7 phage or HEK-293. The following applies: for Kd: read-out: CSF1R kinase binding activity (Kd). In outline:
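Values are either % inhibition at 0.1 uM, relative to DMSO (100% Ctrl) and a control compound (0% Ctrl), or Kd from an 11-point 3-fold series fitted with Hill slope −1. DNA-tagged kinase binds immobilized ligand beads with compound for 1 h at room temperature, and eluted kinase is measured by qPCR.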

The mark [1] stands for this setting: read-out: CSF1R kinase binding activity, Percent (%) inhibition.
Setting [2] is: read-out: CSF1R kinase binding activity, Range.

Sequence of CSF1R (P07333 20-972): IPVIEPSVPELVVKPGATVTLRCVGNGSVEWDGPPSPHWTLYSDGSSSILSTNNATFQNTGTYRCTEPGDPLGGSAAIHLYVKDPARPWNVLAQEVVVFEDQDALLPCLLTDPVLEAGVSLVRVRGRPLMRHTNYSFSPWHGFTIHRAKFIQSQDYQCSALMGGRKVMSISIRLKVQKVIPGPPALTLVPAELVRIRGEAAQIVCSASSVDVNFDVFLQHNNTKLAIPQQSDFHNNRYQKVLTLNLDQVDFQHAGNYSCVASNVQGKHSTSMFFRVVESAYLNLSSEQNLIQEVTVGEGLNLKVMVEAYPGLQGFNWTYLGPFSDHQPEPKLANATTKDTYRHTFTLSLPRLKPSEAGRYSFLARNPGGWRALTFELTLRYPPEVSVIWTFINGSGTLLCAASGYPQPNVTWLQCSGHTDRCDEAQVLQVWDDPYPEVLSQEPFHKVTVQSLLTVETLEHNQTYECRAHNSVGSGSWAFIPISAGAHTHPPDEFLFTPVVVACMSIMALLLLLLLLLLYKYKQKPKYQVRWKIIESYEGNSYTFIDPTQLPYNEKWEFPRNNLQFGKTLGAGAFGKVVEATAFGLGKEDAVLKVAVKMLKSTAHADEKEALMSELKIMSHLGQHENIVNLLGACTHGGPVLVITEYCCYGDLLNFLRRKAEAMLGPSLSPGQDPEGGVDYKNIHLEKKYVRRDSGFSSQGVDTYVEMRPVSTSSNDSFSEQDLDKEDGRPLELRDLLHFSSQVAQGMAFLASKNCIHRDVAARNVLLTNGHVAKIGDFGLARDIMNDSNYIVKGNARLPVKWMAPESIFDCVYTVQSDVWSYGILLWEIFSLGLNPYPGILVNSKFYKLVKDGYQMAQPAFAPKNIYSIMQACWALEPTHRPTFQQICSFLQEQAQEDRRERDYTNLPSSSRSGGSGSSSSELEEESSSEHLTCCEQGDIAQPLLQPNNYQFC

In the case of `COc1cc2nccc(Oc3ccc(NC(=O)c4nn(CC(C)C)cc4OCC(F)(F)F)cc3C)c2cc1OC` [Compound 58], the inhibition at 0.1 µM is, setting by setting: under setting [1], 76%; under setting [2], 50 to 80%.

On to `COc1cc2nccc(Oc3ccc(NC(=O)c4nn(C)cc4OCC(F)(F)F)cc3C)c2cc1OC` [Compound 37], for which the inhibition at 0.1 µM reads like this: under setting [1], 97%; under setting [2], ≥ 80%.

On to `COc1cc2nccc(Oc3ccc(NC(=O)c4nn(C5CC5)c(C(C)=O)c4OCC(F)(F)F)nc3)c2cc1OC` [Compound 3], for which the equilibrium dissociation constant (Kd) was in the range of 100 to 500 nM. In addition, the inhibition at 0.1 µM under setting [1] worked out at 71%. In addition, the inhibition at 0.1 µM under setting [2] lay within 50 to 80%.

Take `CCCn1cc(OCC(F)(F)F)c(C(=O)Nc2ccc(Oc3ccnc4cc(OC)c(OC)cc34)c(F)c2)n1` [Compound 25]: the inhibition at 0.1 µM runs as follows: under setting [1], 87%; under setting [2], ≥ 80%.

In the case of `COc1cc2nccc(Oc3ccc(NC(=O)c4nn(CCO)cc4OCC(F)(F)F)c(F)c3)c2cc1OC` [Compound 46], the inhibition at 0.1 µM under setting [1] was 96% and the inhibition at 0.1 µM under setting [2] was ≥ 80%.

`COc1cc2nccc(Oc3ccc(NC(=O)c4nn(C)cc4OCC(F)(F)F)nc3)c2cc1OC` [Compound 33]: the inhibition at 0.1 µM was 98% under setting [1] and ≥ 80% under setting [2].

With `COCCn1cc(OCC(F)(F)F)c(C(=O)Nc2ccc(Oc3ccnc4cc(OC)c(OC)cc34)c(F)c2)n1` [Compound 54], the inhibition at 0.1 µM runs as follows: under setting [1], 81%; under setting [2], ≥ 80%.

Turning to `CCCCn1cc(OCC(F)(F)F)c(C(=O)Nc2ccc(Oc3ccnc4cc(OC)c(OC)cc34)cn2)n1` [Compound 36], the inhibition at 0.1 µM is 95% under setting [1] and ≥ 80% under setting [2].

Take `COc1cc2nccc(Oc3ccc(NC(=O)c4nn(CCOC5CCC5)cc4OCC(F)(F)F)nc3)c2cc1OC` [Compound 65]: the inhibition at 0.1 µM was 96% under setting [1] and ≥ 80% under setting [2].

On to `COc1cc2nccc(Oc3ccc(NC(=O)c4nn(C5COC5)cc4OCC(F)(F)F)nc3)c2cc1OC` [Compound 66], for which the inhibition at 0.1 µM runs as follows: under setting [1], 96%; under setting [2], ≥ 80%.

Take `CCCn1cc(NCC(F)(F)F)c(C(=O)Nc2ccc(Oc3ccnc4cc(OC)c(OC)cc34)cn2)n1` [Compound 23]: the inhibition at 0.1 µM by setting is: under setting [1], 94%; under setting [2], ≥ 80%.

For the compound `COc1cc2nccc(Oc3ccc(NC(=O)c4nn(CC(C)=O)cc4OCC(F)(F)F)nc3)c2cc1OC` [Compound 19], the inhibition at 0.1 µM reads like this: under setting [1], 97%; under setting [2], ≥ 80%.

Regarding `COCCn1cc(OCC(F)(F)F)c(C(=O)Nc2ccc(Oc3ccnc4cc(OC)c(OC)cc34)cc2)n1` [Compound 61], the inhibition at 0.1 µM reads like this: under setting [1], 76%; under setting [2], 50 to 80%.

Turning to `COc1cc2nccc(Oc3ccc(NC(=O)c4nn(C5CCCC5)cc4OCC(F)(F)F)cc3C)c2cc1OC` [Compound 57], the inhibition at 0.1 µM by setting is: under setting [1], 97%; under setting [2], ≥ 80%.

As to `COc1cc2nccc(Oc3ccc(NC(=O)c4nn(CC5CCN(C)C5)cc4OCC(F)(F)F)nc3)c2cc1OC` (stereo not drawn) [Compound 169], the inhibition at 0.1 µM under setting [1] was 93% and the inhibition at 0.1 µM under setting [2] is ≥ 80%.

On to `CCCn1cc(OCCC(F)(F)F)c(C(=O)Nc2ccc(Oc3ccnc4cc(OC)c(OC)cc34)cn2)n1` [Compound 31], for which the inhibition at 0.1 µM is 95% under setting [1] and ≥ 80% under setting [2].

As to `COc1cc2nccc(Oc3ccc(NC(=O)c4nn(C5CCNC5)cc4OCC(F)(F)F)c(F)c3)c2cc1OC` (stereo not drawn) [Compound 74], the inhibition at 0.1 µM is 39% under setting [1] and < 50% under setting [2].

For `COc1cc2nccc(Oc3ccc(NC(=O)c4nn(CC5CCOC5)cc4OCC(F)(F)F)nc3)c2cc1OC` (stereo not drawn) [Compound 44], the inhibition at 0.1 µM reads like this: under setting [1], 82%; under setting [2], ≥ 80%.

`COc1cc2nccc(Oc3ccc(NC(=O)c4nn(CCC#N)cc4OCC(F)(F)F)nc3)c2cc1OC` [Compound 39]: the inhibition at 0.1 µM under setting [1] was 97% and the inhibition at 0.1 µM under setting [2] is ≥ 80%.

With `COc1cc2nccc(Oc3ccc(NC(=O)c4nn(CC5CNC5)cc4OCC(F)(F)F)nc3)c2cc1OC` [Compound 73], the inhibition at 0.1 µM under setting [1] turned out to be 97% and the inhibition at 0.1 µM under setting [2] is ≥ 80%.

For `COc1cc2nccc(Oc3ccc(NC(=O)c4nn(C5CC5)cc4OCCC(F)(F)F)nn3)c2cc1OC` [Compound 173], the inhibition at 0.1 µM was 69% under setting [1] and 50 to 80% under setting [2].

Consider `CCCn1cc(OCC(F)(F)F)c(C(=O)Nc2ccc(Oc3ccnc4cc(OC)c(OC)cc34)cc2)n1` [Compound 38], for which the inhibition at 0.1 µM runs as follows: under setting [1], 87%; under setting [2], ≥ 80%.

With `COc1cc2nccc(Oc3ccc(NC(=O)c4nn(CC(C)C)cc4OCC(F)(F)F)nc3)c2cc1OC` [Compound 21], the inhibition at 0.1 µM runs as follows: under setting [1], 95%; under setting [2], ≥ 80%.

On to `COc1cc2nccc(Oc3ccc(NC(=O)c4nn(C)cc4OCC(F)(F)F)cc3F)c2cc1OC` [Compound 50], for which the inhibition at 0.1 µM under setting [1] worked out at 80% and the inhibition at 0.1 µM under setting [2] lay in the range of 50 to 80%.

Regarding `COc1cc2nccc(Oc3ccc(NC(=O)c4nn(CC(C)N)cc4OCC(F)(F)F)nc3)c2cc1OC` (stereo not drawn) [Compound 63], the inhibition at 0.1 µM reads like this: under setting [1], 96%; under setting [2], ≥ 80%.

For `COc1cc2nccc(Oc3ccc(NC(=O)c4nn(C5CCOC5)cc4OCC(F)(F)F)cc3F)c2cc1OC` (stereo not drawn) [Compound 55], the inhibition at 0.1 µM is, setting by setting: under setting [1], 60%; under setting [2], 50 to 80%.

Turning to `CCCn1cc(OCC(F)(F)F)c(C(=O)Nc2ccc(Oc3ccnc4cc(OC)c(OC)cc34)cc2F)n1` [Compound 28], the inhibition at 0.1 µM is, setting by setting: under setting [1], 90%; under setting [2], ≥ 80%.

With `COc1cc2nccc(Oc3ccc(NC(=O)c4nn(CC5CCNC5)cc4OCC(F)(F)F)nc3)c2cc1OC` (stereo not drawn) [Compound 72], the inhibition at 0.1 µM is, setting by setting: under setting [1], 96%; under setting [2], ≥ 80%.

Take `COc1cc2nccc(Oc3ccc(NC(=O)c4nn(C5CCCC5)cc4OCC(F)(F)F)nc3)c2cc1OC` [Compound 40]: the inhibition at 0.1 µM reads like this: under setting [1], 94%; under setting [2], ≥ 80%.

Consider `COc1cc2nccc(Oc3ccc(NC(=O)c4nn(C5CCCC5)cc4OCC(F)(F)F)cc3F)c2cc1OC` [Compound 52], for which the inhibition at 0.1 µM was 71% under setting [1] and 50 to 80% under setting [2].

Consider `COc1cc2nccc(Oc3ccc(NC(=O)c4nn(C5CC5)cc4OCCC(F)(F)F)nc3)c2cc1OC` [Compound 170], for which the inhibition at 0.1 µM is 90% under setting [1] and ≥ 80% under setting [2].

Consider `COc1cc2nccc(Oc3ccc(NC(=O)c4nn(CCNC5CC5)cc4OCC(F)(F)F)nc3)c2cc1OC` [Compound 168], for which the inhibition at 0.1 µM reads like this: under setting [1], 95%; under setting [2], ≥ 80%.

As to `COc1cc2nccc(Oc3ccc(NC(=O)c4nn(C5CCC5)cc4OCC(F)(F)F)nc3)c2cc1OC` [Compound 24], the inhibition at 0.1 µM under setting [1] is 96% and the inhibition at 0.1 µM under setting [2] was ≥ 80%.

Consider `COc1cc2nccc(Oc3ccc(NC(=O)c4nn(CCO)cc4OCC(F)(F)F)cc3C)c2cc1OC` [Compound 56], for which the inhibition at 0.1 µM is 0% under setting [1] and < 50% under setting [2].

Consider `COc1cc2nccc(Oc3ccc(NC(=O)c4nn(C(C)C)c(C)c4OCC(F)(F)F)nc3)c2cc1OC` [Compound 2], for which the dissociation constant Kd was 100 to 500 nM. Moreover, the inhibition at 0.1 µM under setting [1] was determined as 89%. The inhibition at 0.1 µM under setting [2] is ≥ 80%.
